The test system of assay [1] is AT1R. As to conditions: Barbadin 100 µM; cited from earlier work.
The test system of assay [2] is PI3K/Akt. Kind of assay: PI3K/Akt BRET sensor (Akt (PH)-RlucII / rGFP-CAAX), EGFR-mediated. The format is cell-based, human. The method, then:
HEK293SL cells were seeded at a density of 7.5 × 10^5 cells per 100-mm dish and 24 h later, transiently transfected as such. For receptor internalization experiments, cells were transfected with 0.12 μg AT1R-RlucII, B2R-RlucII, or β2AR-RlucII and 0.48 μg of either rGFP-CAAX (to assess removal from the PM) or rGFP-FYVE (to assess accumulation in the endosomes). For β-arrestin recruitment assays, cells were transfected with 0.48 μg of receptor-YFP along with 0.12 μg of β-arrestin-RlucII. For β-arrestin/AP-2 binding experiments, cells were transfected with 1 μg Flag-AT1R, 1 μg β2-Adaptin-YFP, and 0.12 μg β-arrestin2-RlucII. For G protein activation, cells were transfected with 3 μg of sp-Flag-AT1R along with either 4.5 μg of the Gαq-polycistronic BRET sensor or 0.24 μg of the Gαi3-RlucII and 0.6 μg of GFP10-Gγ2 and Gβ1 sensors or 0.12 μg PKN-RBD-RlucII and 0.48 μg of rGFP-CAAX. For PKC activation, cells were transfected with 3 μg of sp-Flag-AT1R and 0.18 μg of the PKC sensor. For GTPase activation experiments, cells were transfected with 1 μg Flag-AT1R, 0.48 μg of rGFP-CAAX, and either 0.12 μg of GGA3-PBD-RlucII, PAK-CRIB-RlucII or Raf-RBD-RlucII. For biosensor validation experiments, cells were additionally transfected with 500 ng Flag-K-Ras-WT, Flag-K-Ras-G12V, Flag-K-Ras-SOS-CAAX, HA-ARF6-WT, HA-ARF6-T27N, Myc-Rac1-WT, Myc-Rac1-Q61L or Myc-Rac1-T17N. For PI3K/Akt activation experiments, cells were transfected with 0.48 μg of rGFP-CAAX and 0.12 μg of Akt (PH)-RlucII. After 18 h of transfection, the media was replaced and cells were divided for subsequent experiments. Cells were detached and seeded onto poly-L-ornithine-coated 96-well flat white bottom plates (BrandTech Scientific) at a density of 2.5 × 10^4 cells per well in media. The next day, cells were washed once with Tyrode’s buffer (140 mM NaCl, 2.7 mM KCl, 1 mM CaCl2, 12 mM NaHCO3, 5.6 mM D-glucose, 0.5 mM MgCl2, 0.37 mM NaH2PO4, 25 mM HEPES, pH 7.4) and left in Tyrode’s buffer. For kinetics of β-arrestin recruitment or β-arrestin binding to receptor and AP-2 experiments, cells were serum starved for 30 min, pretreated with 21 (50 µM) or Barbadin (100 µM) for 30 min, stimulated with 100 nM AngII or 1 µM BK and BRET signals were monitored at indicated times using a Victor X Light plate reader (PerkinElmer). Coelenterazine H (final concentration of 5 µM) was added 3–5 min prior to BRET measurements. Filter set was 460/80 nm and 535/30 nm for detecting the RlucII Renilla luciferase (donor) and YFP (acceptor) light emissions, respectively. The BRET ratio was determined by calculating the ratio of the light emitted by YFP over the light emitted by the RlucII. For G protein activation, cells were serum starved, pretreated with compounds for 30 min, stimulated with 100 nM AngII for 2 min (Gαq, Gαi3, and Rho sensors) or 5 min (PKC sensor). For the kinetics of GTPase and PI3K/Akt activation, cells were serum starved, pretreated with 21 (50 µM) or Wortmannin (200 nM) for 30 min, stimulated with ligand (100 nM AngII or 100 ng/ml EGF) and BRET signals were monitored at indicated times. For concentration-response curves, cells were serum-starved, pretreated with various concentrations of compounds for 30 min and stimulated with ligand (100 nM AngII, 1 µM BK, 10 µM Isoproterenol (Iso) or 100 ng/ml EGF) in Tyrode’s buffer for 30 min for receptor internalization, 10 min for ARF6, 2 min for Rac and Rho activation and 5 min for Ras activation and PI3K/Akt activation. BRET signals were monitored using a Synergy2 (BioTek) microplate reader and coelenterazine 400a (final concentrations of 5 µM) added 3–5 min prior to BRET measurements. Filter set was 410/80 nm and 515/30 nm for detecting the RlucII Renilla luciferase (donor) and rGFP/GFP10 (acceptor) light emissions, respectively. The BRET ratio was determined by calculating the ratio of the light emitted by rGFP/GFP10 over the light emitted by the RlucII.
For orientation: BRET reads energy transfer from a luciferase to a nearby fluorophore.

In assay [3] the target is T1, ARF1 (Homo sapiens, UniProt P84077).
T1 construct: expressed in transfected cells; host or cells: HEK293SL
T1 sequence (P84077 whole entry): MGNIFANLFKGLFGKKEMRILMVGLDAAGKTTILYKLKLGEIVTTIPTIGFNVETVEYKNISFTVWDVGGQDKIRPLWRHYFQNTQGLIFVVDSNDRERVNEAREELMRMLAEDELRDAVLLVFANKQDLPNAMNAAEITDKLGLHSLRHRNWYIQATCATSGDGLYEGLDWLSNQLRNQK
Kind of assay: GST-GGA3-PBD pull-down of AT1R-mediated HA-ARF1 activation. The format is cell-based. As to conditions: for ARF1-GTP/ARF1: GST-GGA3-PBD, listed as Comp 21. The procedure:
Activation of ARF1, ARF6, Ras, and Rho were assessed by using GST pull-down assays. HEK293SL cells were transiently transfected with 3 µg AT1R-flag only (Ras and Rho) or along with 500 ng HA-ARF6 (ARF6) or HA-ARF1 (ARF1). Forty-eight hours later, the HEK293 or MDA-MB-231 cells were serum-starved for 4 h with DMEM containing 20 mM HEPES then pretreated with DMSO or Rasarfin (50 µM) for 30 min. Cells were then stimulated with 1 µM AngII or 100 ng/ml EGF for 0 and 2 min. Cells were then washed once with ice-cold PBS and lysed for 30 min at 4 °C in 300 µl of lysis buffer (pH 7.5, 50 mM Tris-HCl, 140 mM NaCl, 5 mM MgCl2, 10% glycerol (v/v), 1% Nonidet P-40 (v/v), 1 mM dithiothreitol) supplemented with protease inhibitors (1 mM phenylmethyl-sulfonyl fluoride (PMSF), 10 µg/ml leupeptin, 5 µg/ml aprotinin, 1 µg/ml pepstatin A) and phosphatase inhibitors (20 mM NaF, 0.025 mM pervanadate). The samples were cleared by centrifugation and 30 µl (cell lysates) was kept for assessing total protein contents. The remaining was transferred to fresh tubes with 20 µg of either GST, GST-GGA3-PBD, GST-Raf1-RBD or GST-Rhotekin-RBD coupled to glutathione resin and rotated for 1–2 h at 4 °C. Beads were washed twice with lysis buffer and proteins were eluted in 25 μl 2x laemmli buffer by heating at 65 °C for 15 min. Proteins were resolved on 14% SDS-PAGE, transferred to nitrocellulose membranes, and immunoblotted for HA, Ras, RhoA, H-Ras, or ARF6. ImageLab 5.2 software was used to quantify the digital blots as fold of the amount of pulled down protein over total protein. Uncropped coomassie gels and immunoblots are provided in the Source Data file.

SMILES strings stand for the structures. Several values for one entry are separate records, joined by “and”; a condition that tells them apart may be missing. Equal values may be shown once.

For the compound `Nn1cnc2scc(-c3ccc(Cc4ccccc4)cc3)c2c1=O` [Barbadin, reference compound], the receptor internalization result in assay [1] is listed as “blocked receptor internalization”.

Regarding `CC(C)C(=O)N1CCN(c2ccc(NC(=O)c3cc4ccccc4o3)cc2Cl)CC1` [Compound 21], the IC50 in assay [2] (Homo sapiens, read-out: potency for inhibition of EGFR-mediated Akt (BRET assay)) was 4 to 5 µM. Besides, the “EGF-promoted BRET” value in assay [2] (Log [Comp 21] (M) -4.30103) is 0.039 and 0.07107 and 0.056; in assay [2] (Log [Comp 21] (M) -5.32288), 0.1533 and 0.2873 and 0.2883; in assay [2] (Log [Comp 21] (M) -6), 0.6727 and 0.6567 and 0.6163; in assay [2] (Log [Comp 21] (M) -6.32288) it was 0.7007 and 0.6398 and 0.6137; in assay [2] (Log [Comp 21] (M) -7) it was 0.7123 and 0.6372 and 0.6493. The “effect on AT1R-dependent ARF1 activation” value in assay [3] (50 μM) is reported as “no effect”. For the same compound, the ARF1-GTP/ARF1 in assay [3] (AngII) is 0.143 and 0.2667 and 0.2223; in assay [3] (Ctrl), 0.07407 and 0.04303 and 0.06878.
